According to ChEMBL document CHEMBL4330185, “Computer-Assisted Discovery and Structural Optimization of a Novel Retinoid X Receptor Agonist Chemotype” (ACS Med Chem Lett, 2019):
≈ marks a conversion by molar mass, not a printed value. Calls of active or inactive are those of the source. No cut-off for these calls is given here.

Tests used:
HepG2 = assay: Cytotoxicity against human HepG2 cells up to 100 uM after 48 hrs by WST1 assay; type: cell-based; details: hepg2, 48 h
[1] = Lipophilicity, log P of the compound by HPLC analysis; type: physicochemical
[2] = Aqueous solubility of the compound after 24 hrs by HPLC analysis; type: physicochemical; details: water
[3] = target: T1, Retinoic acid receptor RXR-gamma (Homo sapiens) (UniProt P48443); assay: Agonist activity at human Gal4-DBD fused RXRgamma LBD expressed in HEK293T cells at 30 uM after 12 to 14 hrs by luciferase reporter gene assay; type: cell-based
T1 sequence (whole entry): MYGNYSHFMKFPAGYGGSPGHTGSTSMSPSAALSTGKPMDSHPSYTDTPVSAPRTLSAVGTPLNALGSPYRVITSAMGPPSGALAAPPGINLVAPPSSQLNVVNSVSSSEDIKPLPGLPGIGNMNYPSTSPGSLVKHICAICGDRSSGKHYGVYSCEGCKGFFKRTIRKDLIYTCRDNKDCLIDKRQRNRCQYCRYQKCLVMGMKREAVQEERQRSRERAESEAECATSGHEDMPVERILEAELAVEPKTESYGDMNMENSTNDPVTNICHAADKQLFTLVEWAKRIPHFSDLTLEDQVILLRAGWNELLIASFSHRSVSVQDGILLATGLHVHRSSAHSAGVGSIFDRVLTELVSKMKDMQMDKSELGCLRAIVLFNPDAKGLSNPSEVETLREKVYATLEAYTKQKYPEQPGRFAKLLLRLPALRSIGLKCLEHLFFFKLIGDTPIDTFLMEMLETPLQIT

[4] = target: T2, Retinoic acid receptor RXR-beta (Homo sapiens) (UniProt P28702); assay: Agonist activity at human Gal4-DBD fused RXRbeta LBD expressed in HEK293T cells at 30 uM after 12 to 14 hrs by luciferase reporter gene assay; type: cell-based
T2 sequence (whole entry): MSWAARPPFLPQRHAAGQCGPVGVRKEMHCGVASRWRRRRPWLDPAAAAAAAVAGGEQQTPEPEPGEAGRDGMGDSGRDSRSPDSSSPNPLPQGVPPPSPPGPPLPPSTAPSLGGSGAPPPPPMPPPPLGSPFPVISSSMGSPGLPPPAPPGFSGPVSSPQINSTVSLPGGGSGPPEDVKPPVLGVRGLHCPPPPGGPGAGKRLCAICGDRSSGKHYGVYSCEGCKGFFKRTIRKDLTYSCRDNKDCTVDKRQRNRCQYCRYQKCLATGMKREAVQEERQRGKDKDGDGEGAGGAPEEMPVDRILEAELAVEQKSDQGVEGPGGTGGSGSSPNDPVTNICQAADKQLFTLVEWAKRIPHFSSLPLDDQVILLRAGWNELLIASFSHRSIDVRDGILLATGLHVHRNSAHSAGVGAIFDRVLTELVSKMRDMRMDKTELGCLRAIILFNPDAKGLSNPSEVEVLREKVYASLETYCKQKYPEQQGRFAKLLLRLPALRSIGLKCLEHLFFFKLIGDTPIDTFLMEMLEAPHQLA

[5] = target: T3, Retinoic acid receptor RXR-alpha (Homo sapiens) (UniProt P19793); assay: Agonist activity at human Gal4-DBD fused RXRalpha LBD expressed in HEK293T cells at 30 uM after 12 to 14 hrs by luciferase reporter gene assay; type: cell-based
T3 sequence (whole entry): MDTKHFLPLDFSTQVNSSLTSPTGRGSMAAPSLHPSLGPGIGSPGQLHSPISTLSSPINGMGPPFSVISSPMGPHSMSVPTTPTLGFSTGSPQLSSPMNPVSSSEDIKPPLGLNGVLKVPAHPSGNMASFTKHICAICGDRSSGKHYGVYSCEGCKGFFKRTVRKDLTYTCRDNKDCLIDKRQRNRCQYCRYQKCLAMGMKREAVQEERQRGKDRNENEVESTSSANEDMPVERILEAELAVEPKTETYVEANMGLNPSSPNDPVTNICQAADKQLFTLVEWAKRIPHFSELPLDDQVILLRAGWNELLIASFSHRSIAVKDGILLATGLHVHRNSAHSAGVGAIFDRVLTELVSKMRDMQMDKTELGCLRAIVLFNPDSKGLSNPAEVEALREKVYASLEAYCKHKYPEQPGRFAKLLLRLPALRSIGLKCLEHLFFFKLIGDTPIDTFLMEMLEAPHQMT

[6] = target: T3, Retinoic acid receptor RXR-alpha (Homo sapiens); assay: Agonist activity at human Gal4-DBD fused RXRalpha LBD expressed in HEK293T cells after 12 to 14 hrs by luciferase reporter gene assay relative to bexarotene; type: cell-based
[7] = target: T4, Retinoic acid receptor RXR-alpha (Homo sapiens, UniProt P19793); assay: Agonist activity at human Gal4-DBD fused RXRalpha LBD expressed in HEK293T cells after 12 to 14 hrs by luciferase reporter gene assay; type: cell-based; details: read-out: EC50
T4 sequence (P19793 whole entry): T3 sequence (whole entry)

[8] = target: T5, Retinoid X receptor (Homo sapiens) (UniProt P28702+P48443+P19793); assay: Agonist activity at RXR in human HepG2 cells assessed as induction of ANGPTL4 mRNA expression at 1 to 10 uM after 8 hrs by RT-PCR analysis; type: cell-based
Homo sapiens [9] = species on record: Homo sapiens; assay: Synergistic agonist activity at full length human RXR-LXR expressed in HEK293T cells co-expressing ABCA1-pGL3 at 1 uM after 12 to 14 hrs in presence of T090 by luciferase reporter gene assay; type: cell-based
[10] = target: T5, Retinoid X receptor (Homo sapiens); assay: Agonist activity at RXR in human HepG2 cells assessed as induction of APOE mRNA expression at 1 to 10 uM after 8 hrs by RT-PCR analysis; type: cell-based
[11] = target: T6, Retinoic acid receptor RXR-gamma (Homo sapiens, UniProt P48443); assay: Agonist activity at human Gal4-DBD fused RXRgamma LBD expressed in HEK293T cells after 12 to 14 hrs by luciferase reporter gene assay; type: cell-based; details: read-out: EC50
T6 sequence (P48443 whole entry): T1 sequence (whole entry)

[12] = Synergistic agonist activity at full length human PPARgamma-RXR expressed in HEK293T cells co-expressing PPRE1-pGL3 after 12 to 14 hrs in presence of rosiglitazone by luciferase reporter gene assay; type: cell-based; details: HEK-293T
[13] = target: T1, Retinoic acid receptor RXR-gamma (Homo sapiens); assay: Agonist activity at human Gal4-DBD fused RXRgamma LBD expressed in HEK293T cells after 12 to 14 hrs by luciferase reporter gene assay relative to bexarotene; type: cell-based
[14] = target: T4, Retinoic acid receptor RXR-alpha; assay: Binding affinity to human RXRalpha LBD by ITC
[15] = Agonist activity at full length human PPARgamma-RXR expressed in HEK293T cells co-expressing PPRE1-pGL3 after 12 to 14 hrs by luciferase reporter gene assay; type: cell-based; details: HEK-293T
[16] = target: T7, Retinoic acid receptor RXR-beta (Homo sapiens, UniProt P28702); assay: Agonist activity at human Gal4-DBD fused RXRbeta LBD expressed in HEK293T cells after 12 to 14 hrs by luciferase reporter gene assay; type: cell-based; details: read-out: EC50
T7 sequence (P28702 whole entry): T2 sequence (whole entry)

[17] = target: T5, Retinoid X receptor (Homo sapiens); assay: Agonist activity at RXR in human HepG2 cells assessed as induction of ADIPOQ mRNA expression at 1 to 10 uM after 8 hrs by RT-PCR analysis; type: cell-based
Homo sapiens [18] = species on record: Homo sapiens; assay: Agonist activity at full length human RXR-LXR expressed in HEK293T cells co-expressing ABCA1-pGL3 at 1 uM after 12 to 14 hrs by luciferase reporter gene assay; type: cell-based
[19] = target: T2, Retinoic acid receptor RXR-beta (Homo sapiens); assay: Agonist activity at human Gal4-DBD fused RXRbeta LBD expressed in HEK293T cells after 12 to 14 hrs by luciferase reporter gene assay relative to bexarotene; type: cell-based
[20] = target: Luciferin 4-monooxygenase (Photinus pyralis) (UniProt P08659); assay: Inhibition of firefly luciferase activity in HEK293T cells co-expressing human Gal4-DBD fused RXRalpha LBD after 12 to 14 hrs by luminescence assay; type: cell-based
Sequence of Luciferin 4-monooxygenase (Photinus pyralis) (P08659 whole entry, the tested form may be a part): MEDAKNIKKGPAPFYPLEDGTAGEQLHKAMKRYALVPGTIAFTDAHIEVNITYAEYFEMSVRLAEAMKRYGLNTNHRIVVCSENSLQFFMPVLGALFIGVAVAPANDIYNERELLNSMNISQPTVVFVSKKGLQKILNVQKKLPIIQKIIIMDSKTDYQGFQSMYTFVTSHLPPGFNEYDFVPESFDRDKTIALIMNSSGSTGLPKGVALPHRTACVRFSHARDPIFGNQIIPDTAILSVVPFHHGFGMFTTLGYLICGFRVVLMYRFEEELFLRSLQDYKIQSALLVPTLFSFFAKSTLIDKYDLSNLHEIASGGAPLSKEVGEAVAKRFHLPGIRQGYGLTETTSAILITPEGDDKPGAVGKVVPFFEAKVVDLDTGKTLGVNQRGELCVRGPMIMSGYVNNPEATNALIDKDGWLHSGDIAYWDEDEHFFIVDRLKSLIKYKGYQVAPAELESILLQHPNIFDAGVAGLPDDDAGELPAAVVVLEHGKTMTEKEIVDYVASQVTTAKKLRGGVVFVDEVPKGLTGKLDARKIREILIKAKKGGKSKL

[21] = target: Luciferin 4-monooxygenase (Photinus pyralis) (UniProt P08659); assay: Inhibition of firefly luciferase activity in HEK293T cells co-expressing human Gal4-DBD fused RXRbeta LBD after 12 to 14 hrs by luminescence assay; type: cell-based
[22] = target: Luciferin 4-monooxygenase (Photinus pyralis) (UniProt P08659); assay: Inhibition of firefly luciferase activity in HEK293T cells co-expressing human Gal4-DBD fused RXRgamma LBD after 12 to 14 hrs by luminescence assay; type: cell-based
[23] = target: T8, Retinoic acid receptor gamma (Homo sapiens) (UniProt P13631); assay: Agonist activity at human Gal4-DBD fused RARgamma LBD expressed in HEK293T cells at 30 uM after 12 to 14 hrs by luciferase reporter gene assay; type: cell-based
T8 sequence (whole entry): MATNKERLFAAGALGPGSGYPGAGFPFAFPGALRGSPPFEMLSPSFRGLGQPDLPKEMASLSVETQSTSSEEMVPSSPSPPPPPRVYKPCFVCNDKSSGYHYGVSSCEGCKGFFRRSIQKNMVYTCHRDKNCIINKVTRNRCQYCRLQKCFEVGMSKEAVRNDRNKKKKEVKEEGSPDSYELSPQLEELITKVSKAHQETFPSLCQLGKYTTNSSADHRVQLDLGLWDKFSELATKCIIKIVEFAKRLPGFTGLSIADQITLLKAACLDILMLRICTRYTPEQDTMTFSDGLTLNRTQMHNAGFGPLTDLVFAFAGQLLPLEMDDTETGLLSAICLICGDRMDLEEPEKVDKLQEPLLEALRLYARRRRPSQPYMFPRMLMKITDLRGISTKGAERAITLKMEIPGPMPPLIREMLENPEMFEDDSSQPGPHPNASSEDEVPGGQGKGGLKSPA

[24] = target: T3, Retinoic acid receptor RXR-alpha (Homo sapiens); assay: Agonist activity at human Gal4-DBD fused RXRalpha LBD expressed in HEK293T cells at 10 uM after 12 to 14 hrs by luciferase reporter gene assay; type: cell-based
[25] = target: T9, Retinoic acid receptor beta (Homo sapiens) (UniProt P10826); assay: Agonist activity at human Gal4-DBD fused RARbeta LBD expressed in HEK293T cells at 30 uM after 12 to 14 hrs by luciferase reporter gene assay; type: cell-based
T9 sequence (whole entry): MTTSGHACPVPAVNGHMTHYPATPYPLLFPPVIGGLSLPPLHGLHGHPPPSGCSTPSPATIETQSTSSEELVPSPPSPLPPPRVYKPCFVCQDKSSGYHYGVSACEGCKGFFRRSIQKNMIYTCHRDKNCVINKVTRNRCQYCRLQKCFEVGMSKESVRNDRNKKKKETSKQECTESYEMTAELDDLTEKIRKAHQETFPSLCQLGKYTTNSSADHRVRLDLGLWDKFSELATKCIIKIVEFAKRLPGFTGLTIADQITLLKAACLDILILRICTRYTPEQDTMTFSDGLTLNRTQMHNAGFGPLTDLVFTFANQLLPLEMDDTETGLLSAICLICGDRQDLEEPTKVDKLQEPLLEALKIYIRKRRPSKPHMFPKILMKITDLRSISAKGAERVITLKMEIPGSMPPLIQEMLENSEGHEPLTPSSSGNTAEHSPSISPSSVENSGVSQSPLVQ

[26] = target: T10, Retinoic acid receptor alpha (Homo sapiens) (UniProt P10276); assay: Agonist activity at human Gal4-DBD fused RARalpha LBD expressed in HEK293T cells at 30 uM after 12 to 14 hrs by luciferase reporter gene assay; type: cell-based
T10 sequence (whole entry): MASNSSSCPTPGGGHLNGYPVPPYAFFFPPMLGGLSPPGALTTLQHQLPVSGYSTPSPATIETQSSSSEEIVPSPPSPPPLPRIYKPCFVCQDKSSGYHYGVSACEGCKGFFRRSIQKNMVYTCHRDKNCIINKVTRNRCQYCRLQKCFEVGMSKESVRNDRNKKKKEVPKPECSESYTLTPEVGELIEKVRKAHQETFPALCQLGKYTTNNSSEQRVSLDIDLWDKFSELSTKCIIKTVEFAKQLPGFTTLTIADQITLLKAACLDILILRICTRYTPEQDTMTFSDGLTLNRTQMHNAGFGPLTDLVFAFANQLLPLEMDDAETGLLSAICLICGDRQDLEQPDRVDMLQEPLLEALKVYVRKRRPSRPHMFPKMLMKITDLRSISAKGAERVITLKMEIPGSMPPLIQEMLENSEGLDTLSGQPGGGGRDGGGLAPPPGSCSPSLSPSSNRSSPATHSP

C=C(c1ccc(C(=O)O)cc1)c1cc2c(cc1C)C(C)(C)CCC2(C)C [BEXAROTENE]
Activity (HepG2): Non-Toxic
logP [1]: 5.2
solubility at 24 h [2]: 0.31 µg/mL (≈ 0.89 µM)

O=C(O)c1ccc(C(=O)Nc2ccc3c(c2)CCC3)cc1
Activity [3]: inactive
Activity [4]: inactive
Activity [5]: inactive

O=C(O)c1ccc(COc2ccccc2-c2ccccc2)cc1
Emax [6]: 70%
EC50 [7]: 280 nM
Activity [8]: Active
Activity (Homo sapiens [9]): Active
Activity [10]: Active
EC50 [11]: 1600 nM
Activity (HepG2): Non-Toxic
EC50 [12]: 470 nM
logP ([1]; read-out: logP): 2.03
Emax [13]: 94%
Kd [14]: 95 nM
solubility at 24 h [2]: 1.31 µg/mL (≈ 4.3 µM)
EC50 [15]: 1000 nM
EC50 [16]: 310 nM
Activity [17]: Active
Activity (Homo sapiens [18]): Active
Emax [19]: 44%

O=C(O)c1cccc(COc2ccc3c(c2)CCC3)c1
inhibition [20]: Active
inhibition [21]: Active
inhibition [22]: Active

O=C(O)c1ccc(COc2ccc3c(c2)CCC3)cc1
Activity [23]: Active
Emax [6]: 29%
EC50 [7]: 6700 nM
EC50 [11]: 17000 nM
Activity [24]: Active
Activity (HepG2): Non-Toxic
Emax [13]: 5%
EC50 [16]: 8800 nM
Emax [19]: 28%
Activity [25]: Active
Activity [26]: Active
